6 compounds from ChEMBL document CHEMBL5724914, “Linking interpersonal differences in gut microbiota composition and drug biotransformation activity” (2024) can be followed below.

The nature of series [1]: The drug is tested on WLS-350 corresponding to human gut metagenome with ENA study accession number: PRJEB37062 and ENA sample accession number: ERS12561789 for biotransformation under anaerobic condition. The drug concentrations were measured over 9 timepoints collected between 0 and 24 hours of incubation by liquid-chromatography-coupled mass spectrometry (LC–MS). The settings on record: 2 µM.

For series [2] the following is noted: human gut metagenome, 24 h, 2 µM.
The nature of series [3]: The drug is tested on WLS-039 corresponding to human gut metagenome with ENA study accession number: PRJEB37062 and ENA sample accession number: ERS12561746 for biotransformation under anaerobic condition. The drug concentrations were measured over 9 timepoints collected between 0 and 24 hours of incubation by liquid-chromatography-coupled mass spectrometry (LC–MS). To be noted: 2 µM.

For series [4] the following is noted: human gut metagenome, 24 h, 2 µM. The source holds these as a separate data set.
The conditions of series [5]: human gut metagenome, 24 h, 2 µM. This is another data set of the same source.
Series [6] is described as follows: The drug is tested on Z-013 corresponding to rabbit gut metagenome with ENA study accession number: PRJEB37062 and ENA sample accession number: ERS12561813 for biotransformation under anaerobic condition. The drug concentrations were measured over 9 timepoints collected between 0 and 24 hours of incubation by liquid-chromatography-coupled mass spectrometry (LC–MS). The settings on record: 2 µM.

For series [7] the following is noted: human gut metagenome, 24 h, 2 µM. The source holds these as a separate data set.
The conditions of series [8]: human gut metagenome, 24 h, 2 µM. This is another data set of the same source.
For series [9] the following is noted: human gut metagenome, 24 h, 2 µM. The source holds these as a separate data set.
The nature of series [10]: The drug is tested on Z-006 corresponding to mouse gut metagenome with ENA study accession number: PRJEB37062 and ENA sample accession number: ERS12561806 for biotransformation under anaerobic condition. The drug concentrations were measured over 9 timepoints collected between 0 and 24 hours of incubation by liquid-chromatography-coupled mass spectrometry (LC–MS). To be noted: 2 µM.

Series [11] can be described thus: The drug is tested on WLS-010 corresponding to human gut metagenome with ENA study accession number: PRJEB37062 and ENA sample accession number: ERS12561743 for biotransformation under anaerobic condition. The drug concentrations were measured over 9 timepoints collected between 0 and 24 hours of incubation by liquid-chromatography-coupled mass spectrometry (LC–MS). The settings on record: 2 µM.

Series [12] can be described thus: The drug is tested on Z-011 corresponding to mouse gut metagenome with ENA study accession number: PRJEB37062 and ENA sample accession number: ERS12561811 for biotransformation under anaerobic condition. The drug concentrations were measured over 9 timepoints collected between 0 and 24 hours of incubation by liquid-chromatography-coupled mass spectrometry (LC–MS). To be noted: 2 µM.

The nature of series [13]: The drug is tested on WLS-052 corresponding to human gut metagenome with ENA study accession number: PRJEB37062 and ENA sample accession number: ERS12561747 for biotransformation under anaerobic condition. The drug concentrations were measured over 9 timepoints collected between 0 and 24 hours of incubation by liquid-chromatography-coupled mass spectrometry (LC–MS). To be noted: 2 µM.

A short description of series [14]: The drug is tested on WLS-006 corresponding to human gut metagenome with ENA study accession number: PRJEB37062 and ENA sample accession number: ERS12561741 for biotransformation under anaerobic condition. The drug concentrations were measured over 9 timepoints collected between 0 and 24 hours of incubation by liquid-chromatography-coupled mass spectrometry (LC–MS). To be noted: 2 µM.

Series [15] can be described thus: The drug is tested on WLS-082 corresponding to human gut metagenome with ENA study accession number: PRJEB37062 and ENA sample accession number: ERS12561751 for biotransformation under anaerobic condition. The drug concentrations were measured over 9 timepoints collected between 0 and 24 hours of incubation by liquid-chromatography-coupled mass spectrometry (LC–MS). The settings on record: 2 µM.

For series [16] the following is noted: human gut metagenome, 24 h, 2 µM. The source holds these as a separate data set.
Series [17] can be described thus: The drug is tested on WLS-370 corresponding to human gut metagenome with ENA study accession number: PRJEB37062 and ENA sample accession number: ERS12561793 for biotransformation under anaerobic condition. The drug concentrations were measured over 9 timepoints collected between 0 and 24 hours of incubation by liquid-chromatography-coupled mass spectrometry (LC–MS). To be noted: 2 µM.

The nature of series [18]: The drug is tested on WLS-007 corresponding to human gut metagenome with ENA study accession number: PRJEB37062 and ENA sample accession number: ERS12561742 for biotransformation under anaerobic condition. The drug concentrations were measured over 9 timepoints collected between 0 and 24 hours of incubation by liquid-chromatography-coupled mass spectrometry (LC–MS). The settings on record: 2 µM.

For series [19] the following is noted: human gut metagenome, 24 h, 2 µM. This is another data set of the same source.
The conditions of series [20]: human gut metagenome, 24 h, 2 µM. The source holds these as a separate data set.
Further: call rule not given here.

Take `COC(=O)C(c1ccccc1)C1CCCCN1` (stereo not given) [METHYLPHENIDATE]: the “Bacterial Biotransformation” value in series [1], in series [2], in series [3], in [4], in series [5] and in series [6] was “Compound NOT metabolized” in each case. The “Bacterial Biotransformation” value in series [7], in series [8], in series [9], in series [10], in series [11] and in [12] was “Compound NOT metabolized” in each case. The “Bacterial Biotransformation” value in [13] is “Compound NOT metabolized”; in series [14] it was “Compound NOT metabolized”; in series [15], “Compound NOT metabolized”; in series [16] it was “Compound metabolized”; in series [17], “Compound NOT metabolized”; in [18], “Compound NOT metabolized”. Moreover, the “Bacterial Biotransformation” value is given as “Compound metabolized” in series [19] and “Compound NOT metabolized” in series [20].
On to `CC(=O)CCCCn1c(=O)c2c(ncn2C)n(C)c1=O` [PENTOXIFYLLINE], for which the “Bacterial Biotransformation” value in series [1], in series [2], in series [3], in series [4], in series [5] and in series [6] was “Compound NOT metabolized” throughout. Also, the “Bacterial Biotransformation” value in series [7], in series [8], in [9], in series [10], in [11] and in series [12] was “Compound NOT metabolized” in each case. The “Bacterial Biotransformation” value in series [13] was “Compound NOT metabolized”; in series [14] it was “Compound NOT metabolized”; in series [15], “Compound NOT metabolized”; in series [16] it was “Compound metabolized”; in series [17], “Compound NOT metabolized”; in series [18], “Compound NOT metabolized”. The “Bacterial Biotransformation” value in series [19] and in series [20] was “Compound NOT metabolized” in each case.
Take `COC(=O)[C@H](c1ccccc1Cl)N1CCc2sccc2C1.O=S(=O)(O)O` [CLOPIDOGREL BISULFATE]: the “Bacterial Biotransformation” value is “Compound metabolized” in series [1]; “Compound metabolized” in series [2]; “Compound NOT metabolized” in series [3]; “Compound metabolized” in [4]; “Compound metabolized” in series [5]; “Compound metabolized” in series [6]. For the same compound, the “Bacterial Biotransformation” value in [7], in series [8], in series [9], in series [10], in [11] and in series [12] was “Compound metabolized” throughout. The “Bacterial Biotransformation” value in series [13], in series [14], in series [15], in series [16], in [17] and in series [18] was “Compound metabolized” throughout. The “Bacterial Biotransformation” value in series [19] and in [20] was “Compound metabolized” throughout.
Turning to `Cc1cc(C)cc(OCC2CNC(=O)O2)c1` (stereo not given) [METAXALONE], the “Bacterial Biotransformation” value in series [1] was “Compound metabolized”; in series [2], “Compound NOT metabolized”; in series [3], “Compound metabolized”; in series [4], “Compound metabolized”; in [5], “Compound metabolized”; in series [6] it was “Compound NOT metabolized”. Further, the “Bacterial Biotransformation” value in [7] is on record as “Compound NOT metabolized”; in [8], “Compound metabolized”; in [9], “Compound metabolized”; in series [10] it was “Compound NOT metabolized”; in [11], “Compound metabolized”; in [12], “Compound NOT metabolized”. In addition, the “Bacterial Biotransformation” value in series [13], in series [14], in series [15], in series [16], in [17] and in series [18] was “Compound metabolized” each time. The “Bacterial Biotransformation” value in [19] and in series [20] was “Compound metabolized” in each case.
As to `COc1ccc([C@@H]2Sc3ccccc3N(CCN(C)C)C(=O)[C@@H]2OC(C)=O)cc1` [DILTIAZEM], the “Bacterial Biotransformation” value in series [1] was “Compound metabolized”; in series [2] it was “Compound metabolized”; in series [3] it was “Compound metabolized”; in [4], “Compound NOT metabolized”; in series [5] it was “Compound NOT metabolized”; in series [6], “Compound NOT metabolized”. Further, the “Bacterial Biotransformation” value in series [7] is given as “Compound NOT metabolized”; in series [8], “Compound metabolized”; in [9], “Compound NOT metabolized”; in series [10], “Compound NOT metabolized”; in series [11] it was “Compound metabolized”; in series [12], “Compound NOT metabolized”. For the same compound, the “Bacterial Biotransformation” value is listed as “Compound NOT metabolized” in series [13]; “Compound metabolized” in series [14]; “Compound metabolized” in [15]; “Compound metabolized” in [16]; “Compound metabolized” in [17]; “Compound NOT metabolized” in series [18]. Moreover, the “Bacterial Biotransformation” value in [19] was “Compound metabolized”; in [20], “Compound NOT metabolized”.
On to `CC(C)(C)NC(=O)[C@H]1CC[C@H]2[C@@H]3CC[C@H]4NC(=O)C=C[C@]4(C)[C@H]3CC[C@]12C` [FINASTERIDE], for which the “Bacterial Biotransformation” value in [1], in series [2], in series [3], in series [4], in [5] and in series [6] was “Compound metabolized” each time. Besides, the “Bacterial Biotransformation” value in series [7] is given as “Compound metabolized”; in series [8], “Compound metabolized”; in series [9] it was “Compound NOT metabolized”; in series [10], “Compound metabolized”; in [11], “Compound metabolized”; in series [12], “Compound metabolized”. For the same compound, the “Bacterial Biotransformation” value is listed as “Compound metabolized” in [13]; “Compound metabolized” in [14]; “Compound metabolized” in [15]; “Compound metabolized” in series [16]; “Compound metabolized” in series [17]; “Compound NOT metabolized” in series [18]. Besides, the “Bacterial Biotransformation” value in [19] and in [20] was “Compound metabolized” each time.
